Assay: method code SF-AS, from DOI: 10.1002/jps.2600771105, PMID: 3225751
Conditions: pH 1.0
CCCC1(CCC)C(=O)NC(=O)NC1=O showed a logD of 1.75. For CC(C)(C)C1C(=O)NC(=O)NC1=O, the logD was 0.28. CC(C)C1C(=O)NC(=O)NC1=O gave a logD of -0.02. With CC(C)C1(C(C)C)C(=O)NC(=O)NC1=O the logD was 1.56. With CCCCC1(CCCC)C(=O)NC(=O)NC1=O the logD was 2.7. In the case of CCCC1(CCC)C(=O)NC(=S)NC1=O, the logD is reported as 2.66. CC1(C)C(=O)NC(=S)NC1=O showed a logD of 0.5. With CC(C)C1(C)C(=O)NC(=O)NC1=O the logD was 0.54. With CC(C)(C)C1(C)C(=O)NC(=O)NC1=O the logD was 0.8. C=CCC1(C(C)(C)C)C(=O)NC(=O)NC1=O gave a logD of 1.64. CCCCC1(CC)C(=O)NC(=O)NC1=O showed a logD of 1.73. CCC1(C(C)(C)C)C(=O)NC(=O)NC1=O showed a logD of 1.38. In the case of CCC1(CC)C(=O)NC(=S)NC1=O, the logD is reported as 1.5. CC(C)(C)C1(Cl)C(=O)NC(=O)NC1=O showed a logD of 0.82.
